Experimental data as given in PMC12072186, “A Novel Small Molecule Enhances Stable Dopamine Delivery to the Brain in Models of Parkinson’s Disease” (International Journal of Molecular Sciences, 2025).
Like-named read-outs stand apart in the source and are kept apart here.

Columns and labels:
[1] = system: MPTP-treated C57BL/6 mice; assay: Rotarod test in MPTP-treated mice; format: in vivo, mouse; conditions: MPTP 25 mg/kg i.p. day 1–5; treatment day 1–13; vs MPTP vehicle control
Experimental: (§1) MPTP was injected to male C57BL/6 mice for 5 consecutive days (Figure 4A) to destroy DA neurons, and then the mice were treated with Pegasus alone or Pegasus + Benserazide compared to L-dopa alone or L-Dopa + Benserazide.
(§2) From day 1 to day 5, MPTP was administered to all the groups except Naive at a dose of 25 mg/kg, i.p., QD. Treatment with Pegasus alone (50 mg/kg, i.p., BID), a combination of Pegasus 50 mg/kg, BID + Benserazide 10 mg/kg, QD, or a combination of L-Dopa 10 mg/kg, QD + Benserazide 10 mg/kg, QD or standalone L-Dopa 10 mg/kg, QD, started on day 1 and continued until day 13. On day 13, after the first dose of Pegasus, 4 animals/time point from each group were sacrificed at 0.5, 1, 3, 6, and 12 h, and the blood and brains were collected.
The mice were placed on an accelerating Rotarod (Columbus Instruments, Columbus, OH, USA) equipped with individual timers for each mouse. […] The mice were trained for 3 consecutive days before the final measurement.

[2] = system: MPTP-treated C57BL/6 mice; assay: Grip strength test in MPTP-treated mice; format: in vivo, mouse; conditions: MPTP 25 mg/kg i.p. day 1–5; treatment day 1–13; vs MPTP vehicle control
Experimental: as §1, §2
The maximal muscle/grip strength of forelimbs was measured using a strength meter.

[3] = cited from earlier work
[4] = In vivo metabolism, metabolite profiling in rat brain and plasma (LC-MS/MS); conditions: male, Sprague Dawley, intraperitoneal, 50 mg/kg; relative abundance brain vs plasma, rat
Experimental: In vivo metabolism: We performed a metabolism study (Figure 2) in male Sprague Dawley rats (6–8 weeks old) after a single i.p. injection of 50 mg/kg Pegasus. Plasma and brain samples were serially collected and assessed for the presence of possible phase-I and phase-II metabolites. […] The relative abundance of Pegasus and its metabolites in the brain and plasma was determined at the ionization parameters of the parent.
Metabolite profiling was performed in rat brain and plasma samples to detect phase-I and phase-II metabolites in male Sprague Dawley rats (6–8 weeks old, n = 6) injected (i.p.) with 50 mg/kg Pegasus. The formulation vehicle of Pegasus was 5% DMSO + 35% polyethylene glycol (PEG) 400 + 60% normal saline, and this formulation was used to measure the plasma and brain concentrations of Pegasus and all other metabolites. All samples obtained after Pegasus dosing in rats by the i.p. route of administration were used for metabolite profiling and compared to normal saline. Blood (n = 16 samples) was collected via retro-orbital plexus puncture 0.25, 1, 4, 6, 8, and 24 h pre-dose, and brain sampling was 1, 4, and 24 h post-dose (n = 6 per group). The brain samples were cleaned and perfused, then washed with PBS. The brains (approximately 1.5 g) were transferred to a 50 mL centrifuge tube and 36 mL of ice-cold PBS was added. The mixture was homogenized for about 1–2 min to obtain a uniform suspension. The precipitate was allowed to settle for 30 min at 4 °C, and 15 mL of the middle layer was collected. The plasma and brain samples were processed by the protein precipitation method. In total, 175 μL of acetonitrile was added to 25 μL of plasma samples. The samples were mixed, followed by centrifugation at 4000 rpm for 20 min. The supernatant from the samples was subjected to LC-MS/MS analysis.
The samples were analyzed by liquid chromatography tandem mass spectrometry (HPLC: LC series, Shimadzu, Chiyoda-ku, Tokyo, Japan; mass spectrometer: API4000 Triple Quad mass spectrometer, Applied Biosystems, Carlsbad, CA, USA). The samples (n = 6) were processed using protein precipitation and 1 mM stock solution, prepared in DMSO, spiked into acetonitrile to a final concentration of 4 µM, and processed using liquid chromatography tandem mass spectrometry, employing a linear gradient method using MH+/MH−(Q1) and product ion (MS/MS) scans. The evaluation of the Pegasus metabolites included demethylation, de-hydroxylation, amide cleavage, oxidation, de-hydrogenation, glucuronidation, sulfation, glutathione conjugation, and several other possibilities. The relative abundance of Pegasus and its metabolites in the brain and plasma was determined at the ionization parameters of the parent.

MPTP models of PD = system: MPTP models of PD; parameters: method as in PMID 11724929; conditions: cited from earlier work

N[C@@H](Cc1ccc(O)c(O)c1)C(=O)O [L-Dopa]
Latency to fall (Rotarod) [1]: significantly increased latency to fall | Forelimb grip strength [2]: significantly reversed back to normal levels | Half-life T1/2 ([3]; in combination with DDCI): 60 to 90 min | Levodopa brain entry ([3]; in combination with dopa-carboxylase enzyme inhibitor (DDCI)): up to 10% | Half-life T1/2 ([3]; levodopa administered alone): 46.2 to 64.8 min | Share of oral dose that reaches the brain ([3]; levodopa administered alone): 1% | Share reaching the brain ([3]; with DDCI and selective COMT inhibitors): up to 40%

NC(=O)CCC(=O)NCCc1cc(O)c(O)c(SCC(N)C(=O)O)c1 (stereo not drawn) [M11]
Kp [4]: 1.31

CN(C)c1ccc(O)c2c1C[C@H]1C[C@H]3[C@H](N(C)C)C(O)=C(C(N)=O)C(=O)[C@@]3(O)C(O)=C1C2=O [Minocycline]
Striatal cell loss (MPTP models of PD): prevents striatal cell loss
